Measured values as given in patent publication US6531481B2 (priority 1998, dated 2003).
Counter-ions that a name gives are not always drawn. Each block holds one compound with its values, some of them ahead of it.

How the values were obtained:
opioid receptors = test: Stimulation of [35S]GTPγS binding (agonist/antagonist activity); assay type: biochemical, guinea pig

- melting point: 177 to 178 °C
SMILES: C=CCN1CC[C@@H](N(c2ccccc2)c2ccc(C(=O)N(CC)CC)cc2)[C@H](C)C1 (racemic) (as salt: hydrochloride)

SMILES: CN1CCC2(c3cccc(O)c3)Cc3ccccc3CC2(C)C1 (racemic) [Compound 7, (±)-1,2,3,4,4a,5,10,10a-octahydro-4a-(3-hydroxyphenyl)-2,10a-dimethylbenzo-[g]isoquinoline]
- stimulation of [35S]GTPγS binding (agonist activity) (opioid receptors; concentrations as high as 1 μM): neither the N-methyl derivative 7 nor the N-phenethyl derivative 8 stimulated

SMILES: CC1C2CCCC1(c1cccc(O)c1)CCN2CCc1ccccc1 (stereo not drawn) [Compound 5c, 5-(3-Hydroxyphenyl)-9β-methyl-2-(2′-phenylethyl)-2-azabicyclo[3.3.1]nonane]
- agonist/antagonist character (opioid receptors; [35S]GTPγS functional assay): pure antagonists at the μ, δ, and κ opioid receptors
- stimulation of GTP binding (agonist activity) (opioid receptors; up to concentrations of 10 μM): neither 5b nor 5c stimulated GTP binding

- melting point: 221 to 225.5 °C
SMILES: C=CCN1CC[C@H](N(c2ccccc2)c2ccc(C(=O)N(CC)CC)cc2)[C@H](C)C1 (racemic) (as salt: hydrochloride)
